The text below walks through data of publication PMC6471242, “Dereplication by High-Performance Liquid Chromatography (HPLC) with Quadrupole-Time-of-Flight Mass Spectroscopy (qTOF-MS) and Antiviral Activities of Phlorotannins from Ecklonia cava” (Marine Drugs, 2019).

Entries after “also recorded” stand apart in the source; their conditions may differ.

A short description of one data set: Cytotoxicity assay (MTT). The settings on record: dog.
In the next data set the test system is neuraminidase. Nature of the data set: Western blot of viral protein synthesis in H1N1-infected MDCK cells, neuraminidase. The following applies: 5, 10, 20, and 40 μM, 24 h.
The test system of a further data set is hemagglutinin. Put plainly: Western blot of viral protein synthesis in H1N1-infected MDCK cells, hemagglutinin. The settings on record: 5, 10, 20, and 40 μM, 24 h. On the technique in general: In western blotting, separated proteins are transferred to a membrane and probed.
Another data set can be described thus: in vitro. The following applies: dog.

The compound `Oc1cc(O)cc(Oc2c(O)cc(O)c3c2Oc2c(O)cc4oc5c(Oc6cc(O)cc(O)c6)c(O)cc(O)c5c4c2O3)c1` [Compound 12, Phlorofucofuroeckol A] yielded a CC50 at 48 h in the data set “Cytotoxicity assay (MTT)” above 100 µM. For the same compound, the “inhibition of neuraminidase expression (viral protein synthesis, Western blot)” value in the data set with neuraminidase was “decreased the expression of neuraminidase and hemagglutinin at 10 μM; also recorded: strongest inhibition capacity was observed at 40 µM; also recorded: strong inhibitory effects”. In the data set with hemagglutinin, the “inhibition of hemagglutinin expression (viral protein synthesis, Western blot)” value is “decreased the expression of neuraminidase and hemagglutinin at 10 μM; also recorded: strongest inhibition capacity was observed at 40 µM; also recorded: strong inhibitory effects”.
In turn, `Oc1cc(O)c2oc3cc(O)c4oc5cc(O)cc(O)c5oc4c3oc2c1` [Compound 14, Dioxinodehydroeckol] showed a CC50 at 48 h in the data set “in vitro” above 100 µM.
As for `Oc1cc(O)cc(Oc2c(O)cc(O)c3c2Oc2c(O)cc(Oc4c(O)cc(Oc5c(O)cc(O)c6c5Oc5c(O)cc(O)cc5O6)cc4O)cc2O3)c1` [Compound 11, Dieckol], the CC50 at 48 h in the data set “Cytotoxicity assay (MTT)” is above 100 µM.
Still for that read-out and setting: the result for `Oc1cc(O)c2c(c1)Oc1c(O)cc(O)cc1O2` [Compound 13, Dibenzo[1,4]dioxine-2,4,7,9-tetraol] reads above 100 µM.
